Values after ≈ are worked out from the molar mass of the structure shown. Active and inactive are the calls of the source. No cut-off for these calls is given here.
Columns and labels:
[1] = molecular target: T1, G-protein coupled bile acid receptor 1 (Homo sapiens) (UniProt Q8TDU6); assay: Agonist activity at N-terminal HA-tagged human TGR5 expressed in HEK293 cells assessed as […] in intracellular cAMP levels incubated for 30 mins by Lance Ultra cAMP assay relative to control; assay type: functional, cell-based; settings: filed as agonist
T1 sequence (whole entry): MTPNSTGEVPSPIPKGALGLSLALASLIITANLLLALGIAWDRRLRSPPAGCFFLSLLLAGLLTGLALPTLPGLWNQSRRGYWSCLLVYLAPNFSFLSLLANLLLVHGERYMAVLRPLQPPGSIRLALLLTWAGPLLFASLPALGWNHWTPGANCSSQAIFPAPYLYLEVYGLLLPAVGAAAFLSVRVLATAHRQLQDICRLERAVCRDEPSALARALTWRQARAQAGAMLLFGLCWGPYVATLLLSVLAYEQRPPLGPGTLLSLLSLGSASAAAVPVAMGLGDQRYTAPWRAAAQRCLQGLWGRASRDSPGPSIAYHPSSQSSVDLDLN

Mus musculus [2] = assay: Anti-glycemic activity in fasted C57BL/6n mouse harboring TGR5 H88Y mutant assessed as increase in serum GLP1 at 100 mg/kg administered 30 mins prior to glucose challenge and measured after 15 mins by ELISA method; assay type: functional, organism-based
Mus musculus [3] = assay: Anti-glycemic activity in fasted C57BL/6n mouse harboring TGR5 H88Y mutant assessed as increase in serum insulin at 100 mg/kg administered 30 mins prior to glucose challenge and measured after 15 mins by ELISA method; assay type: functional, organism-based
Pancreatic islet [4] = assay: Stimulation of glucose-induced insulin secretion in pancreatic islets of C57BL/6n mouse harboring TGR5 H88Y mutant at 1 uM incubated for 2 hrs by HTRF method; assay type: functional, tissue-based
Mus musculus [5] = assay: Anti-glycemic activity in fasted C57BL/6n mouse harboring wild type TGR5 assessed as reduction in plasma glucose at 100 mg/kg administered 30 mins prior to glucose challenge by OGTT; assay type: functional, organism-based
[6] = molecular target: T2, Bile acid receptor (Homo sapiens) (UniProt Q96RI1); assay: Agonist activity at human FXR (247 to 467 residues) expressed in HEK293 cells at 100 uM incubated for 8 hrs by luciferase assay; assay type: cell-based
T2 sequence (whole entry): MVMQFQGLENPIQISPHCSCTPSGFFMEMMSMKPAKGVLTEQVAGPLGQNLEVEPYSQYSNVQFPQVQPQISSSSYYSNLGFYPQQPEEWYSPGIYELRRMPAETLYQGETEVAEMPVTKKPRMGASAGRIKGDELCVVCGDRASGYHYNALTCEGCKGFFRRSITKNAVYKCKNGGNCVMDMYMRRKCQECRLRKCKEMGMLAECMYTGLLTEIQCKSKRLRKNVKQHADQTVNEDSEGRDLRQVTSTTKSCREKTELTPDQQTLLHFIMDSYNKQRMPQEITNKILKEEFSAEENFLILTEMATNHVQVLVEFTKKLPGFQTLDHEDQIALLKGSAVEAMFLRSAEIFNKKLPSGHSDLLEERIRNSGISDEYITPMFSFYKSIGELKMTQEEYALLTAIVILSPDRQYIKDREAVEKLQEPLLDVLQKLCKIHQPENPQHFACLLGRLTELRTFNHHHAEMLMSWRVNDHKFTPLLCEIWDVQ

Mus musculus [7] = assay: Anti-glycemic activity in fasted C57BL/6n mouse assessed as increase in serum GLP1 at 100 mg/kg administered 30 mins prior to glucose challenge and measured after 15 mins by ELISA method; assay type: functional, organism-based
Mus musculus [8] = assay: Anti-glycemic activity in fasted C57BL/6n mouse assessed as increase in serum insulin at 100 mg/kg administered 30 mins prior to glucose challenge and measured after 15 mins by ELISA method; assay type: functional, organism-based
Pancreatic islet [9] = assay: Stimulation of glucose-induced insulin secretion in pancreatic islets of C57BL/6n mouse harboring wild type TGR5 at 1 uM incubated for 2 hrs by HTRF method; assay type: functional, tissue-based
Mus musculus [10] = assay: Anti-glycemic activity in fasted C57/BL6 mouse harboring TGR5 H88Y mutant assessed as reduction in plasma glucose at 100 mg/kg administered 30 mins prior to glucose challenge by OGTT; assay type: functional, organism-based
HEK293 [11] = assay: Ratio of agonist activity at N-terminal HA-tagged mouse TGR5 expressed in HEK293 cells to agonist activity at N-terminal HA-tagged mouse TGR5 H88Y mutant expressed in HEK293 cells; assay type: cell-based
HEK293 [12] = assay: Agonist activity at N-terminal HA-tagged dog TGR5 expressed in HEK293 cells assessed as […] in intracellular cAMP levels incubated for 30 mins by Lance Ultra cAMP assay relative to control; assay type: cell-based; settings: Canis lupus familiaris, filed as agonist
[13] = Apparent permeability in human Caco2 cells across basolateral side to apical side assessed as drug recovery at 10 uM incubated for 95 mins by liquid chromatography-tandem mass spectrometry; assay type: ADME, cell-based; settings: Caco-2, read-out: Drug recovery
[14] = Aqueous solubility of compound; assay type: physicochemical; settings: buffer
[15] = molecular target: T3, G-protein coupled bile acid receptor 1 (Homo sapiens, UniProt Q8TDU6); assay: Agonist activity at N-terminal HA-tagged human TGR5 expressed in HEK293 cells assessed as […] in intracellular cAMP levels incubated for 30 mins by Lance Ultra cAMP assay; assay type: functional, cell-based
T3 sequence (Q8TDU6 whole entry): T1 sequence (whole entry)

[16] = molecular target: T4, G-protein coupled bile acid receptor 1 (Mus musculus, UniProt Q80SS6); assay: Agonist activity at N-terminal HA-tagged mouse TGR5 expressed in HEK293 cells assessed as […] in intracellular cAMP levels incubated for 30 mins by Lance Ultra cAMP assay; assay type: functional, cell-based
T4 sequence (Q80SS6 whole entry): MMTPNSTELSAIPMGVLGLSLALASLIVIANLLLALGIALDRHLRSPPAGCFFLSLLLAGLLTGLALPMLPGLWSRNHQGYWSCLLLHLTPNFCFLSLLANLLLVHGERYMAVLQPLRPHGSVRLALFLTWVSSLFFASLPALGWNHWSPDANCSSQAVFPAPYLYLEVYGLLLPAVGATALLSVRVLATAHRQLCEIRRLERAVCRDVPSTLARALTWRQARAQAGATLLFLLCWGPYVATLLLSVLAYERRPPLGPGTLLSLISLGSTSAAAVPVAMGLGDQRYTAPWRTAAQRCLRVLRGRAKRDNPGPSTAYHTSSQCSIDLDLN

[17] = Apparent permeability in human Caco2 cells across apical side to basolateral side assessed as drug recovery at 10 uM incubated for 95 mins by liquid chromatography-tandem mass spectrometry; assay type: ADME, cell-based; settings: Caco-2, read-out: Drug recovery
[18] = molecular target: T5, G-protein coupled bile acid receptor 1 (Mus musculus) (UniProt Q80SS6); assay: Agonist activity at N-terminal HA-tagged mouse TGR5 expressed in HEK293 cells assessed as […] in intracellular cAMP levels incubated for 30 mins by Lance Ultra cAMP assay relative to control; assay type: functional, cell-based
T5 sequence (whole entry): T4 sequence (Q80SS6 whole entry)

[19] = Apparent permeability in human Caco-2 cells across apical side to basolateral side at 10 uM incubated for 95 mins by liquid chromatography-tandem mass spectrometry; assay type: ADME, cell-based
[20] = Efflux ratio in human Caco-2 cells at 10 uM by LC/MS/MS analysis; assay type: ADME, cell-based
[21] = Apparent permeability in human Caco-2 cells across basolateral side to apical side at 10 uM incubated for 95 mins by liquid chromatography-tandem mass spectrometry; assay type: ADME, cell-based

Row | SMILES | Emax [1] [%] | Activity [6] | Activity (Mus musculus [10]) | Ratio (HEK293 [11]) | Activity (HEK293 [12]) | recovery at 1.583 h, 10 µM [13] [%] | solubility [14] [µM] | EC50 [15] [nM] | recovery at 1.583 h, 10 µM [17] [%] | further results
1 | C[C@H](O)[C@@H]1CC[C@]2(C(=O)O)CC[C@]3(C)[C@H](CC[C@@H]4[C@@]5(C)CC[C@@H](OC(=O)NC6CC6)C(C)(C)[C@@H]5CC[C@]43C)[C@@H]12 [listing 1 of 2 here] | 99 | inactive | Active | – | – | – | – | – | – | Activity (Mus musculus [2]): Active; Activity (Mus musculus [3]): Active; Activity (Pancreatic islet [4]): Active; Activity (Mus musculus [5]): inactive; Activity (Mus musculus [7]): inactive; Activity (Mus musculus [8]): inactive; Activity (Pancreatic islet [9]): Active
2 | O=C(c1cccnc1Oc1cc(Cl)ccc1Cl)N1CCCc2ccccc21 | – | – | – | 4.9 | Active | – | – | – | – | –
3 | CCCC(=O)O[C@@H]1CC[C@]2(C)[C@H]3CC[C@@H]4[C@H]5[C@H](C(C)C)CC[C@]5(C(=O)O)CC[C@@]4(C)[C@]3(C)CC[C@H]2C1(C)C | 94 | inactive | inactive | – | – | 0 | 0.13 (≈ 0.0687 µg/mL) | 83.1 | 0 | EC50 [16]: 2610 nM; Emax [18]: 22%
4 | C[C@H](O)[C@@H]1CC[C@]2(C(=O)O)CC[C@]3(C)[C@H](CC[C@@H]4[C@@]5(C)CC[C@@H](OC(=O)NC6CC6)C(C)(C)[C@@H]5CC[C@]43C)[C@@H]12 [listing 2 of 2 here] | – | – | – | – | – | – | 12.2 (≈ 6.63 µg/mL) | 5.07 | – | –
5 | C[C@H](O)[C@@H]1CC[C@]2(C(=O)[O-])CC[C@]3(C)[C@H](CC[C@@H]4[C@@]5(C)CC[C@@H](OC(=O)NC6CC6)C(C)(C)[C@@H]5CC[C@]43C)[C@@H]12.[Na+] | – | – | – | – | – | 85.1 | 76300 | – | 84.6 | Papp A→B at 1.583 h, 10 µM [19]: 7.56 ×10⁻⁶ cm/s; efflux ratio at 10 µM [20]: 0.329; Papp B→A at 1.583 h, 10 µM [21]: 2.49 ×10⁻⁶ cm/s
6 | COc1ccc2cc(CNCCc3ccc(Br)cc3)c(-c3ccsc3)nc2c1 | – | – | – | 5.6 | Active | – | – | – | – | –
